According to the supplement of paper PMC10307832:

Key:
Assay in all cases: relative viability (nuclei count vs DMSO), 5 days (fraction); higher = more cells survive
[1] = compound: CS(=O)(=O)c1ccc(-c2cnc(N)c(C(=O)Nc3ccccc3)n2)cc1 [VE-821] + CCNC(=O)c1noc(-c2cc(C(C)C)c(O)cc2O)c1-c1ccc(CN2CCOCC2)cc1 [Luminespib] (partner 0.01 µM)
Procedure, shortened: (§1)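 Relative viability equals treated-well nuclei counts divided by vehicle-well nuclei counts. Counts came from 4× images of lung cancer cell lines grown in 1536-well plates for 5 days after pin-tool dosing on the day after seeding. Dosing used one drug alone or a fixed anchor-drug dose plus five library-drug doses (not always all listed) in √10 steps, and values are medians of duplicate plates.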

[2] = compound: CS(=O)(=O)c1ccc(-c2cnc(N)c(C(=O)Nc3ccccc3)n2)cc1 [VE-821] + CS(=O)(=O)CCNCc1ccc(-c2ccc3ncnc(Nc4ccc(OCc5cccc(F)c5)c(Cl)c4)c3c2)o1 [Lapatinib] (partner 2 µM)
Procedure, shortened: as §1

[3] = compound: CS(=O)(=O)c1ccc(-c2cnc(N)c(C(=O)Nc3ccccc3)n2)cc1 [VE-821] + NC(=O)Nc1cc(-c2cccc(F)c2)sc1C(=O)N[C@H]1CCCNC1 [AZD7762] (partner 0.2 µM)
Procedure, shortened: as §1

[4] = compound: N#CC[C@H](C1CCCC1)n1cc(-c2ncnc3[nH]ccc23)cn1 [Ruxolitinib] + CS(=O)(=O)N1CCN(Cc2cc3nc(-c4cccc5[nH]ncc45)nc(N4CCOCC4)c3s2)CC1 [Pictilisib] (partner 1 µM)
Procedure, shortened: as §1

Cell Line | relative viability ([1]; first compound 0.08 µM) | relative viability ([1]; first compound 0.253 µM) | relative viability ([1]; first compound 0.8 µM) | relative viability ([1]; first compound 2.53 µM) | relative viability ([1]; first compound 8 µM) | relative viability ([2]; first compound 0.08 µM) | relative viability ([2]; first compound 0.253 µM) | relative viability ([2]; first compound 0.8 µM) | relative viability ([2]; first compound 2.53 µM) | relative viability ([2]; first compound 8 µM) | relative viability ([3]; first compound 0.08 µM) | relative viability ([3]; first compound 0.253 µM) | relative viability ([3]; first compound 0.8 µM) | relative viability ([3]; first compound 2.53 µM) | relative viability ([3]; first compound 8 µM) | relative viability ([4]; first compound 0.08 µM) | relative viability ([4]; first compound 0.253 µM) | relative viability ([4]; first compound 0.8 µM) | relative viability ([4]; first compound 2.53 µM) | relative viability ([4]; first compound 8 µM)
NCI-H1993 | 1.1 | 0.857 | 0.67 | 0.655 | 0.704 | 0.947 | 0.837 | 0.75 | 0.784 | 0.826 | 0.958 | 0.669 | 0.603 | 0.723 | 0.552 | 0.809 | 0.754 | 0.855 | 0.781 | 0.846
A-427 | 1.08 | 1 | 0.69 | 0.745 | 0.3 | 1.08 | 0.998 | 1.06 | 1.1 | 0.676 | 0.767 | 0.599 | 0.417 | 0.362 | 0.327 | 0.742 | 0.749 | 0.773 | 0.371 | 0.629
NCI-H2347 | 0.399 | 0.418 | 0.238 | 0.505 | 0.582 | 1.02 | 1.05 | 0.664 | 1.03 | 1.14 | 0.703 | 0.746 | 0.42 | 0.698 | 0.531 | 0.437 | 0.637 | 0.554 | 0.485 | 0.674
BEN | 0.414 | 0.374 | 0.376 | 0.344 | 0.322 | 0.845 | 0.775 | 0.657 | 0.8 | 0.662 | 0.651 | 0.62 | 0.675 | 0.505 | 0.396 | 0.494 | 0.583 | 0.647 | 0.53 | 0.584
NCI-H23 | 0.202 | 0.223 | 0.214 | 0.236 | 0.213 | 1.19 | 1.07 | 1.27 | 0.989 | 0.394 | 0.18 | 0.148 | 0.153 | 0.14 | 0.126 | 0.519 | 0.474 | 0.603 | 0.439 | 0.415
LU99A | 0.274 | 0.261 | 0.241 | 0.199 | 0.194 | 1.06 | 1.11 | 1.04 | 0.85 | 0.448 | 0.372 | 0.307 | 0.208 | 0.195 | 0.102 | 0.321 | 0.315 | 0.401 | 0.339 | 0.316
ABC-1 | 0.614 | 0.401 | 0.469 | 0.49 | 0.328 | 1.3 | 1.32 | 0.811 | 0.953 | 0.994 | 0.86 | 0.767 | 0.94 | 0.714 | 0.628 | 0.875 | 0.742 | 0.867 | 0.705 | 0.738
HCC-15 | 0.37 | 0.175 | 0.517 | 0.422 | 0.315 | 0.958 | 0.875 | 0.87 | 1.09 | 0.796 | 1.35 | 0.434 | 1.23 | 1.29 | 1.26 | 0.701 | 0.77 | 0.789 | 0.703 | 0.737
